# In patent publication EP4772186A1, “USE AND COMPOSITION OF POSTBIOTIC OF LACTOBACILLUS PARACASEI ET-22” (Inner Mongolia Yili Industrial Group Co., Ltd., priority 2023, dated 2025):
# What was measured:
# [1] = system: volatile organic compounds (VOCs); assay: SPME-GC-MS of volatile organic compounds (VOCs) in saliva fermentation; assay type: cell-based, halitosis subjects (saliva)
# Protocol: (§1) Fresh saliva was collected from 10 halitosis subjects (Halimeter index >120). Subjects were required not to consume any food or drink for 2 hours before donating saliva. Saliva was directly spat into a saliva collection tube, 5 ml per person, and mixed. The mixture was centrifuged at 4500 rpm for 10 minutes, and the supernatant was collected, aliquoted, and stored at -80°C for subsequent experimental studies.
# (§2) Lysate group: In a headspace vial, 100 µl of saliva was added first, followed by separate addition of ET-22 viable bacteria (1.0×10^9 CFU/ml), ET-22 heat-inactivated bacterial cells (obtained by inactivating viable bacteria at 1.0×10^9 CFU/ml), and lysate (obtained by inactivating and then filtering viable bacteria at 1.0×10^9 CFU/ml), each at 100µl. Then, 800 µl of SHI medium was added. After filling with nitrogen, anaerobic cultivation was performed for 10 hours for loading on machine, and then SPME-GC-MS was used to test the change in content of volatile organic compound.
# (§3) NAD group: In a headspace vial, 100 µl of saliva was added first, followed by the separate addition of ET-22 viable bacteria (1.0×10^9 CFU/ml), ET-22 heat-inactivated bacterial cells (obtained by heat-inactivating viable bacteria at 1.0×10^9 CFU/ml), and NAD (100 µg/ml), each at 100µl. Then, 800 µl of SHI medium was added. After filling with nitrogen, anaerobic cultivation was performed for 10 hours for loading on machine, then SPME-GC-MS was used to test the changes in content of volatile organic compound.
# 2-hydroxy-3-phenylpropionic acid group: In a headspace vial, 100 µl of saliva was added first, followed by the separate addition of ET-22 viable bacteria (1.0×10^9 CFU/ml), ET-22 heat-inactivated bacterial cells (obtained by heat-inactivating viable bacteria at 1.0×10^9 CFU/ml), and 2-hydroxy-3-phenylpropionic acid (100 µg/ml), each at 100µl. […]
# Helium was used as a carrier gas, with a rate remaining at 1.1 mL min-1. […] The flavor characteristic of each compound was determined based on data from the Good Scents Company Information System (http://www.thegoodscentscompany.com).
# [2] = system: indole, hexanoic acid, and propanoic acid; assay: SPME-GC-MS of characteristic flavor compounds; assay type: cell-based, halitosis subjects (saliva)
# Protocol: as §1, §2, §3
# 2-hydroxy-3-phenylpropionic acid group: In a headspace vial, 100 µl of saliva was added first, followed by the separate addition of ET-22 viable bacteria (1.0×10^9 CFU/ml), ET-22 heat-inactivated bacterial cells (obtained by heat-inactivating viable bacteria at 1.0×10^9 CFU/ml), and 2-hydroxy-3-phenylpropionic acid (100 µg/ml), each at 100µl. Then, 800 µl of SHI medium was added. After filling with nitrogen, anaerobic cultivation was performed for 10 hours for loading on machine, and then SPME-GC-MS was used to test the changes in content of volatile organic compound.
# GP(HYP)GAG group: In a headspace vial, 100 µl of saliva was added first, followed by the separate addition of ET-22 viable bacteria (1.0×10^9 CFU/ml), ET-22 heat-inactivated bacterial cells (obtained by heat-inactivating viable bacteria at 1.0×10^9 CFU/ml), and GP(HYP)GAG (100 µg/ml), each at 100µl. Then, 800 µl of SHI medium was added. After filling with nitrogen, anaerobic cultivation was performed for 10 hours for loading on machine, and then SPME-GC-MS was used to test the changes in content of volatile organic compound.
# Peptidoglycan group: In a headspace vial, 100 µl of saliva was added first, followed by separate addition of ET-22 viable bacteria (1.0×10^9 CFU/ml), ET-22 heat-inactivated bacterial cells (same as Example 1), and peptidoglycan (same as Example 1), each at 100µl. Then, 800 µl of SHI medium was added. After filling with nitrogen, anaerobic cultivation was performed for 10 hours for loading on machine, and then SPME-GC-MS was used to test the changes in content of volatile organic compound.
# Helium was used as a carrier gas, with a rate remaining at 1.1 mL min-1. The injector temperature was set at 250°C. Oven temperature program was as follows: holding at 40°C for 1 min, then ramping to 120°C at a rate of 8°C/min, followed by increasing to 230°C at a rate of 5°C/min and holding for 10 minutes. The mass spectrometer was operated in electron ionization (EI) mode, with ion source temperature of 230°C, interface temperature of 200°C, and M/Z scan range of 30-400. To identify specific compounds, their mass spectra were compared with those of true compounds given in the NIST 17 database (V.05). The minimum matching quality for forward and reverse matches was 75/100. The flavor characteristic of each compound was determined based on data from the Good Scents Company Information System (http://www.thegoodscentscompany.com). […]
# [3] = system: Solobacterium moorei; assay: in vitro oral biofilm model, sequencing: relative abundance; assay type: cell-based
# Protocol: 100 µl of saliva was added to a 24-well plate, then 100 µl of the corresponding concentration solution was added respectively to the experimental groups, and finally 800 µl of SHI medium was added. The plate was placed in an anaerobic box and cultured anaerobically at 37°C for 10 hours. Then, the supernatant was discarded, and the multi-species biofilm adhered to the well plate was obtained. After discarding the supernatant from the incubated biofilm, the biofilm adhered to the bottom of the well plate was re-suspended with sterile water by pipetting, transferred to a 1.5 ml centrifuge tube, and stored until gene sequencing was performed.
# Based on sequencing results, halitosis-causing pathogenic bacteria in the biofilm were identified. Four key halitosis-causing pathogenic bacteria were identified: Fusobacterium nucleatum, Streptococcus mutans, Prevotella intermedia, and Solobacterium moorei. All four bacteria had been proven to be positively correlated with VSC concentration. […] Therefore, this example adopts lysate, NAD, 2-hydroxy-3-phenylpropionic acid, and polypeptide GP(Hyp)GAG to intervene in halitosis-causing pathogenic bacteria in the biofilm, evaluating changes in the relative abundance of pathogenic bacteria after intervention. Additionally, Prevotella intermedia is a periodontal pathogen that can produce indole via the tryptophan metabolic pathway. […]
# [4] = pure components 100 µg/ml, others from 1.0×10^9 CFU/ml, 10 hours
# [5] = relative to ET-22 viable bacteria and heat-inactivated bacteria
smiles,measurement,setting,value
O=C(O)C(O)Cc1ccccc1 (centres unmarked) [2-hydroxy-3-phenylpropionic acid],number of flavor-active acid compounds,"[1]; among 71 aroma-active VOCs, 100 µg/ml",significantly decreases
same,number of flavor-active ester compounds,"[1]; among 71 aroma-active VOCs, pure components 100 µg/ml, others from 1.0×10^9 CFU/ml",significantly decreases
same,number of alkane compounds (VOCs),"[1]; pure components 100 µg/ml, peptidoglycan from 1.0×10^9 CFU/ml, 10 hours",significantly decreases
same,hexanoic acid concentration,[2]; [4],significantly decrease
same,indole concentration,[2]; [4],significantly decrease
same,propanoic acid concentration,[2]; [4],significantly decrease
same,intervention effect on hexanoic acid,[2]; [5],better
same,intervention effect on indole,[2]; [5],better
same,intervention effect on propanoic acid,[2]; [5],better
same,growth of Solobacterium moorei (relative abundance),"[3]; multi-species biofilm, 37°C 10 hours",significantly inhibit the growth
same,inhibitory effect on Solobacterium moorei,[3]; relative to ET-22 viable bacteria or ET-22 heat-inactivated bacteria,better
